Source: patent US7547804B2, “Compounds, compositions, and methods employing same” (Myriad Genetics, Inc., priority 2002, dated 2009)

System: LNCaP cell lines
Experiment: WST-1 Cell Proliferation and Viability Assay
Format: cell-based
Conditions: Homo sapiens; LNCaP cells, compound incubation 18-72 hours
In short: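 LNCaP cells (5000/well, phenol-red-free RPMI-1640 with 10% FCS) were plated overnight, then exposed to compounds in 0.1% DMSO final for 18-72 hours at 37 °C. Viability was read by WST-1 conversion to formazan after 3 h further incubation, measured at A490-A650.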

Structure (SMILES)	EC50
CCCOCCOc1ccc(C(F)(F)F)cc1NC(=O)c1cc(Cl)ccc1O [Compound 301]	0.67 µM
Cc1cc(C)c(CCOc2cccc(NC(=O)c3cc(Cl)ccc3O)c2)c(C)c1 [Compound 62]	4 µM
Cc1cc(OCCc2ccccc2C(F)(F)F)c(NC(=O)c2cc(Cl)ccc2O)cc1Cl [Compound 136]	1 µM
COc1ccccc1CCOc1cccc(NC(=O)c2cc(-c3cc4ccccc4s3)ccc2O)c1 [Compound 354]	7.3 µM
O=C(NCc1cccc(-c2cccc(C(F)(F)F)c2)c1)c1cc(Cl)ccc1O [Compound 304]	18 µM
N#Cc1ccc(OCCc2ccccc2C(F)(F)F)c(NC(=O)c2cc(Cl)ccc2O)c1 [Compound 140]	3 µM
O=C(Nc1cc(COCc2ccccc2)ccc1Cl)c1cc(Cl)ccc1O [Compound 279]	6 µM
O=C(Nc1cc(Cl)ccc1OCCc1ccccc1)c1cc(Cl)ccc1O [Compound 22]	2 µM
COc1ccc(-c2ccc(O)c(C(=O)Nc3cccc(OCCc4ccccc4OC)c3)c2)cc1 [Compound 342]	10 µM
O=C(Nc1cccc(OCCCc2ccccc2)c1)c1cc(Cl)ccc1O [Compound 96]	10 µM
O=C(Nc1cc(Cl)ccc1OCCc1ccccc1)c1cc(Cl)cc([N+](=O)[O-])c1O [Compound 294]	19 µM
CC(=O)Nc1cccc(C(=O)Nc2cccc(OCCc3ccccc3)c2)c1O [Compound 2]	23 µM
O=C(Nc1cc(Cl)ccc1OCCc1ccc(OC(F)(F)F)cc1)c1cc(Cl)ccc1O [Compound 161]	1 µM
CCN(CC)CCOc1cccc(CNc2cccc(NC(=O)c3cc(Cl)ccc3O)c2)c1 [Compound 30]	50 µM
O=C(Nc1ccccc1)c1cc(Cl)ccc1O [Compound 168]	17 µM
O=C(Nc1cc(Cl)ccc1OCCCc1ccccc1)c1cc(Cl)ccc1O [Compound 75]	1 µM
COc1ccccc1CCOc1cccc(NC(=O)c2cc(Br)ccc2O)c1 [Compound 194]	9 µM
COC(=O)CCc1ccc(OCCc2ccccc2)c(NC(=O)c2cc(Cl)ccc2O)c1 [Compound 326]	6.2 µM
COc1ccccc1CCOc1cccc(NC(=O)c2cc(-c3ccc(Cl)cc3)ccc2O)c1 [Compound 351]	11 µM

Same assay, conditions: Homo sapiens; LNCaP cells; flagged "Estimated": based on actual data at different concentrations

Structure (SMILES)	EC50
O=C(Nc1cccc(OCCc2ccccc2)c1)c1cc(Cl)ccc1O [Compound 29]	30 µM
Cc1ccc(CNC(=O)c2cc(Cl)ccc2O)cc1-c1ccccc1 [Compound 291]	30 µM
